According to paper PMC12389234, “Bioactive Potential of Nepenthes miranda Flower Extracts: Antidiabetic, Anti-Skin Aging, Cytotoxic, and Dihydroorotase-Inhibitory Activities” (Plants, 2025):

Target: T1, porcine pancreatic elastase (Sus scrofa, UniProt P00772)
T1 construct: gene CELA1; native mature enzyme from porcine pancreas (commercial, Sigma-Aldrich)
Experiment: spectrophotometric, p-nitroanilide release, […] nm
Format: biochemical

T1 sequence (P00772 27-266): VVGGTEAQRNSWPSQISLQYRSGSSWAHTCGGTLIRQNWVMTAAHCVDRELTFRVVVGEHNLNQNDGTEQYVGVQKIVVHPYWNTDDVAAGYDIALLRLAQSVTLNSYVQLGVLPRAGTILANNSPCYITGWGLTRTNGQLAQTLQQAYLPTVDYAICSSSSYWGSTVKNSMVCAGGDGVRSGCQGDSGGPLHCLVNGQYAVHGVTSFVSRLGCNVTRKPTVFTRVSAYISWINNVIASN

IC50: 9.27 µM
Structure (SMILES): O=C(O[C@@H]1Cc2c(O)cc(O)cc2O[C@@H]1c1cc(O)c(O)c(O)c1)c1cc(O)c(O)c(O)c1 [EGCG]
